Laboratory results taken from US9084760B2, “Increasing glutathione levels for therapy” (priority 2008, dated 2015).

Legend:
red blood cell GSH = assay: Red blood cell GSH concentration and ASR in nondiabetic elderly humans after 2-week supplementation (Example 4); assay type: in vivo; conditions: after 2-week oral supplementation
Experimental: (§1) Eight nondiabetic elderly humans were studied in the basal state, and after 2-week oral supplementation with either n-acetylcysteine alone, glycine alone, or both supplements, with a 2-week washout period in-between. […] Plasma lipid peroxides were measured as a marker of ongoing damage due to oxidative stress. Eight younger adult subjects were also recruited as controls.

Plasma lipid peroxides = Plasma lipid peroxides in nondiabetic elderly humans after 2-week supplementation (Example 4); assay type: in vivo; conditions: after 2-week oral supplementation
Experimental: as §1

lipid peroxides (ROOH) = assay: Plasma ROOH and glucose in diabetics after 2-week supplementation (Example 3); assay type: in vivo, humans; conditions: after 2-week dietary supplementation
Experimental: (§2) Eight diabetics were studied before and after 2-week dietary supplementation with either n-acetylcysteine (NAC), glycine, or both. Subjects received infusions of ^2H2-glycine to measure the concentration, fractional synthetic rates (FSR) and absolute synthetic rates (ASR) of red cell GSH. Plasma ROOH and glucose levels were measured. Eight non-diabetic subjects were studied as controls.

red cell GSH = assay: Red cell GSH concentration, FSR and ASR in diabetics after 2-week supplementation (Example 3); assay type: in vivo, humans; conditions: after 2-week dietary supplementation, Mean±SE
Experimental: as §2

Structure (SMILES) | GSH concentration (red blood cell GSH) [mmol/L RBC] | GSH-ASR (red blood cell GSH) [mmol/L/day] | concentrations of lipid peroxides (Plasma lipid peroxides) [mmol/L ROOH] | glycemia (lipid peroxides (ROOH)) | ROOH concentrations (lipid peroxides (ROOH); plasma) | GSH ASR (red cell GSH) [mmol/L/day] | GSH FSR (red cell GSH) [%/d] | GSH concentration (red cell GSH) [mmol/LRBC]
NCC(=O)O [glycine] | 1.21±0.27 | 0.71 ± 0.05 | 3.57±1.13 |  |  |  |  | 
CC(=O)N[C@@H](CS)C(=O)O [n-acetylcysteine] | 1.37±0.30 | 0.92 ± 0.23 | 3.22±1.29 | remained unchanged | 5.78±0.78 | 0.93 ± 0.18 | 61±2 | 1.61±0.15
